Activity calls are given as the source filed them. How the calls were made is not given here.
Test system: GENE-TOX genotoxicity assays, various organisms and cells
Assay: GENE-TOX mutagenicity studies
Settings: for call: Assay Type: In vivo carcinogenicity studies, Assay Code: CCG+
Excerpt: GENE-TOX provides genetic toxicology (mutagenicity) test data from expert peer review of open scientific literature for more than 3,000 chemicals from the United States Environmental Protection Agency (EPA). GENE-TOX was established to select assay systems for evaluation, review data in the scientific literature, and recommend proper testing protocols and evaluation procedures for these systems.
GENE-TOX covers the years 1991 - 1998. It is no longer updated.
This is an archive assay for GENE-TOX mutagenicity studies.

[1] = Species/Cell Type: Drosophila melanogaster, Assay Type: Sex-linked recessive lethal gene mutation, Assay Code: SRL+, Evaluation Type: Evaluation A (Pre-1980)
[2] = Species/Cell Type: Human lymphocytes, Assay Type: Sister-chromatid exchange (SCE) in vitro, Assay Code: SCL+D, Dose Response: With dose response, Evaluation Type: Evaluation B (Post-1980)
[3] = Species/Cell Type: Human, Assay Type: Sister-chromatid exchange (SCE) in vitro, Assay Code: SC1+D, Dose Response: With dose response, Evaluation Type: Evaluation B (Post-1980)
[4] = Species/Cell Type: Salmonella typhimurium (one or more of the five standard strains: TA98, TA100, TA1535, TA1537, and TA1538), Assay Type: Histidine reverse gene mutation, Ames assay, Assay Code: SAL+, Evaluation Type: Evaluation A (Pre-1980)
[5] = Species/Cell Type: Bacillus subtilis (H17 vs M45), Assay Type: Rec-assay, spot test, DNA effects (bacterial DNA repair), Assay Code: REW-, Evaluation Type: Evaluation A (Pre-1980)
[6] = Species/Cell Type: Saccharomyces cerevisiae, Assay Type: Mitotic recombination or gene conversion, Assay Code: YEH-, Evaluation Type: Evaluation A (Pre-1980)
[7] = Species/Cell Type: Nonhuman, Evaluation Type: Evaluation A (Pre-1980)
[8] = Species/Cell Type: Salmonella typhimurium (one or more of the five standard strains: TA98, TA100, TA1535, TA1537, and TA1538), Assay Type: Histidine reverse gene mutation, Ames assay, Assay Code: SAL-, Evaluation Type: Evaluation A (Pre-1980)

## CN(C)P(=O)(N1CC1)N1CC1
[1]
  mutagenic call: active; positive
[2]
  mutagenic call: active; positive
[3]
  mutagenic call: active; positive
Species/Cell Type: Nonhuman, Assay Type: Chromosome aberrations in vitro, Assay Code: CY&+, Evaluation Type: Evaluation A (Pre-1980)
  mutagenic call: active; positive
Species/Cell Type: Schizosaccharomyces pombe, Assay Type: Reverse gene mutation, Assay Code: YEZ+, Evaluation Type: Evaluation A (Pre-1980)
  mutagenic call: active; positive

## O=[N+]([O-])c1cccc([N+](=O)[O-])c1Cl
Species/Cell Type: Escherichia coli polA (W3119 vs P3478), Assay Type: Rec-assay, DNA effects (bacterial DNA repair), Assay Code: RE1T, Evaluation Type: Evaluation A (Pre-1980)
  mutagenic call: no conclusion

## NS(=O)(=O)c1ccccc1C(=O)O
Species/Cell Type: Mammalian polychromatic erythrocytes, Assay Type: Micronucleus test, chromosome aberrations, Assay Code: MNTT, Evaluation Type: Evaluation B (Post-1980)
  mutagenic call: no conclusion

## COc1ccccc1N1CCN(c2ccc([N+](=O)[O-])c3no[n+]([O-])c23)CC1
[4]
  mutagenic call: active; positive

## CN(C)c1ccc(N=Nc2ccc3nc4ccc(N)cc4[n+](-c4ccccc4)c3c2)cc1
[5]
  mutagenic call: inactive; negative

## CC(=O)NCc1nc(-c2ccc([N+](=O)[O-])o2)no1
[4]
  mutagenic call: active; positive

## O=C1OC(O)C(C(Cl)Cl)=C1Cl (centres undefined)
Species/Cell Type: Mammalian polychromatic erythrocytes, Assay Type: Micronucleus test, chromosome aberrations, Assay Code: MNT-, Evaluation Type: Evaluation B (Post-1980)
  mutagenic call: inactive; negative

## CCCCCC[C@@H](O)[C@@H]1C2=C(C[C@H]([C@H](O)[C@@H]3CC=CC(=O)O3)CC3=C(C(=O)OC3=O)[C@@H]1O)C(=O)OC2=O
[5]
  mutagenic call: inactive; negative
Species/Cell Type: Rodents, Sex: Male, Assay Type: Dominant lethal test, Assay Code: DLT+, Evaluation Type: Evaluation A (Pre-1980)
  mutagenic call: active; positive
[6]
  mutagenic call: inactive; negative
Species/Cell Type: Salmonella typhimurium (one or more of the five standard strains: TA98, TA100, TA1535, TA1537, and TA1538), Assay Type: Histidine reverse gene mutation, Ames assay, Assay Code: SALT, Evaluation Type: Evaluation A (Pre-1980)
  mutagenic call: no conclusion

## CN(C)/N=N/c1nc[nH]c1C(N)=O
Species/Cell Type: Chinese hamster ovary (CHO) cells, Assay Type: Forward gene mutation at the HPRT locus, Assay Code: CHO+, Evaluation Type: Evaluation B (Post-1980)
  mutagenic call: active; positive
[1]
  mutagenic call: active; positive
Species/Cell Type: Human lymphocytes, Assay Type: Sister-chromatid exchange (SCE) in vivo, Assay Code: SCY+, Evaluation Type: Evaluation B (Post-1980)
  mutagenic call: active; positive
[7]
  call: active; positive
Species/Cell Type: Nonhuman, Assay Type: Sister-chromatid exchange (SCE) in vitro, Assay Code: SC2+, Evaluation Type: Evaluation B (Post-1980)
  mutagenic call: active; positive

## COc1ccc(/C=C/Cl)cc1
[2]
  mutagenic call: active; positive
[3]
  mutagenic call: active; positive

## CC(COc1ccc(C(C)(C)C)cc1)OS(=O)OCCCl (centres undefined)
[7]
  call: active; positive

## CCCOC(=O)c1ccc(O)cc1
[8]
  mutagenic call: inactive; negative

## COc1ccc(N)cc1N
[1]
  mutagenic call: active; positive
Species/Cell Type: Mammalian polychromatic erythrocytes, Assay Type: Micronucleus test, chromosome aberrations, Assay Code: MNTT, Evaluation Type: Evaluation A (Pre-1980)
  mutagenic call: no conclusion
Species/Cell Type: Mouse, Sex: Male, Assay Type: Sperm morphology, Assay Code: SPI-, Evaluation Type: Evaluation A (Pre-1980)
  mutagenic call: inactive; negative
Species/Cell Type: Neurospora crassa, Assay Type: Aneuploidy, chromosome aberrations, Assay Code: NEN+, Evaluation Type: Evaluation A (Pre-1980)
  mutagenic call: active; positive
[7]
  call: active; positive
Species/Cell Type: Nonhuman, Assay Type: Sister-chromatid exchange (SCE) in vivo, Assay Code: SC3+, Evaluation Type: Evaluation B (Post-1980)
  mutagenic call: active; positive
Species/Cell Type: Rodents, Sex: Male, Assay Type: Dominant lethal test, Assay Code: DLT-, Evaluation Type: Evaluation A (Pre-1980)
  mutagenic call: inactive; negative
Species/Cell Type: Salmonella typhimurium (one or more of the five standard strains: TA98, TA100, TA1535, TA1537, and TA1538), Assay Type: Histidine reverse gene mutation, Ames assay, Assay Code: SAL+*, Activation: With metabolic activation, Evaluation Type: Evaluation A (Pre-1980)
  mutagenic call: active; positive

## CCN(CC)c1ccc(N=Nc2ccccc2)cc1
[6]
  mutagenic call: inactive; negative
[8]
  mutagenic call: inactive; negative

Reference: PubChem BioAssay AID1259408 (Genetic Toxicology Data Bank (GENE-TOX), 2018)
